From paper PMC8578629, “Photoactivated cell-killing amino-based flavylium compounds” (Scientific Reports, 2021)

Columns and labels:
[1] = Fluorescence quantum yield by the absolute method (integrating sphere); format: physicochemical; conditions: in DMSO
Protocol: Based on the absorbance maxima of the different compounds (Fig. S2), the measurement of the quantum yield (QY) of the synthesized flavylium derivatives was performed using a calibrated Quantaurus-QY stand-alone integrating sphere setup C11347-11 (Hamamatsu Photonics, Hamamatsu, Japan) equipped with an integration sphere, a monochromator, a spectrograph, a 150 W xenon light source and a silicon charge coupled device. Each compound was dissolved in DMSO and diluted to ensure an absorbance of 0.1 from the λmax of excitation forward. Each compound was then irradiated at the corresponding wavelength and the absolute quantum yield determined. The fluorescence spectra was also recorded (Fig. S3). For each compound, four independent experiments were performed.

[2] = Molar absorption coefficient (ɛ) at 630 nm; format: physicochemical
Protocol: The molar extinction coefficient or molar absorption (ɛ), of all synthesized pigments was determined in three different solvents (ethanol, methanol and DMSO). For each pigment, in each solvent, a range of concentrations was prepared and then the spectrum of each solution was read. Finally, the respective absorbances (collected at 630 nm) were represented as a function of concentration and the ɛ value was taken from the slope value of the equation curve.

[3] = Oxygen singlet production by Singlet Oxygen Sensor Green assay; conditions: for ^1O2 production: compound 25 μM, after white light irradiation 79.2 J cm^−2
Protocol: The production of singlet oxygen by the different amino-based compounds in solution was determined as follows: a stock solution of Singlet Oxygen Sensor Green was prepared at 5 mM in methanol (MeOH). Working solutions of the probe were prepared at 2 mM in 100 mM pH 7.5 Tris buffer and in 100 mM pH 7.5 Tris buffer with 10 mM of Sodium Azide. The compounds were then prepared at a stock concentration of 500 μM and the working solutions were prepared in 100 mM pH 7.5 Tris buffer and in 100 mM pH 7.5 Tris buffer with 10 mM of Sodium Azide. 1 μL of Singlet Oxygen Sensor Green working solutions and 100 μL of compounds solution were mixed to a final volume of 1000 μL (in 100 mM pH 7.5 Tris buffer or in 100 mM pH 7.5 Tris buffer with 10 mM of Sodium Azide). 100 μL of each solution was then added to a 96-well black plate and 100 μL of Deuterium Oxide was added for a final concentration of 1 μM Singlet Oxygen Sensor Green and 25 μM for the different amino-based compounds. The fluorescence was then registered in a spectrofluorometer using excitation/emission of 488/525 nm. After this procedure, the wells were irradiated with a white light source with a total of 79.2 J cm^−2, corresponding to a total irradiation time of 1 h (6 pulses of 10 min) and then, the fluorescence determined using the same excitation/emission pair. As a positive control, Methylene Blue was used at a final concentration of 10 μM. The oxygen singlet production methodology was performed in a dark room.

HaCaT cells [4] = experiment: Reactive oxygen species production (DCF-DA); format: cell-based, human; conditions: 25 μM, 6.6 J cm^−2, versus control cells
Protocol: Cells reactive oxygen species (ROS) production was evaluated following the standard method. Briefly, cells were seed at a density of 4 × 10^4 cells/mL onto 96 well plates and after 24 h the compounds were added at 25 μM (non-toxic concentration) and the same previous procedure for the photoactivation assays was followed. After that, cells were washed twice in Hank’s Buffered Saline Solution (HBSS) and incubated with 100 μL of 50 μM 2′,7′-dichlorodihydrofluorescein diacetate (DCF‐DA) for 30 min in the same previous conditions. For positive control, cells were treated with 100 μM H2O2 for 30 min prior to the addition of DCF-DA. Cells were then washed twice with HBSS and incubated with fresh DMEM medium for 24 h. After this period, the fluorescence intensity at […] (ex/em) was determined in a FlexStation 3 Multi-Mode Microplate Reader.

HaCaT cells [5] = experiment: Cellular photoactivation assay (white light or dark, Alamar Blue); format: cell-based, human
Protocol: A white light LED homemade device prototype has 96 LEDs appropriately arranged on a plate of 13 cm length × 8 cm width, with a distance from the microplate surface of 8 cm. The prototype has an irradiance of 21 W m^−2 and a wavelength range of 408–707 nm (Fig. S4).
For the cellular photoactivation assays, the white light source of 21 W m^−2 was used. Briefly, cells were seed at a density of 4 × 10^4 cells/mL onto 96 –well plates and after 24 h the compounds were added to the plates in different concentrations (6.25–100 μM) and incubated for a period of 4 h at 37 °C in an atmosphere of 5% CO2 and in the presence of DMEM with 2% FBS. After this period, the medium with the compounds was removed and fresh medium (DMEM with 2% FBS without phenol red (DMEM_2% FBS_w/o_PR) was added to cells. Following this procedure, cells were submitted to light irradiation, the selected light source at a height of 8 cm, in a chamber designed to ensure the same light quantity for each well during the treatment. Cells were irradiated for 10 min at an intensity of 50%, at room temperature (making a total energy exposition of 6.6 J cm^−2). The dark treatment was prepared by placing the plates for 10 min in a dark box at room temperature. After this, the 96 well plates were placed in an incubator at 37 °C in an atmosphere of 5% CO2 for 24 h. Then, to determine cell survival the Alamar Blue assay was performed as follows: after the 24 h, 20 μL of a solution of Resazurin (0.15 mg mL^−1 in PBS filtered in 0.22 μm filters) were added to each well (making a total volume of 120 μL per well), and the plates were incubated between 4–6 h (until the development of visible color change from violet to pink). The fluorescence intensity of each well was then determined at 560/590 nm (ex/em) (FlexStation 3 Multi-Mode Microplate Reader).

[6] = MTT cytotoxicity assay, keratinocytes; format: cell-based; conditions: human, HaCaT cells (keratinocytes), dark
Protocol: (§1) The cytotoxicity of amino-based flavylium compounds to HFF-1 (ATCC Number: SCRC-1041) and HaCaT cells was evaluated using the standard MTT assay. Briefly, cells were seeded at a density of 8 × 10^5 and 4 × 10^4 cells/mL, respectively, in 96-well plate and incubated at 37 °C in a 5% CO2 atmosphere. Cells were allowed to grow for 24 h or until reaching monolayer confluency, and serially diluted compound solutions (6.3–100 µM) were added to the plate wells. The stock solutions of each compound were prepared at 200 mM in DMSO, the maximum % of DMSO in the cells was 0.05%. Then, cells were incubated for 48 h at 37 °C, after which the plate wells were washed once with phosphate buffered saline (PBS, Sigma-Aldrich), followed by addition of a 0.45 mg/mL MTT solution to each well. Crystals were allowed to form for 1.5 h. The reaction was stopped by rejecting the medium followed by the addition of 100 µL of DMSO (Sigma-Aldrich). The absorbance was read at 570 nm in FlexStation 3 Multi-Mode Microplate Reader (Molecular Devices, California, USA).

[7] = MTT cytotoxicity assay, fibroblasts; format: cell-based; conditions: human, HFF-1 cells (fibroblasts), HFF-1, proliferation condition, dark
Protocol: as §1

SMILES | Quantum yield of fluorescence (Φf), mean ± SD [1] | Molar absorption coefficient ɛ at 630 nm ([2]; DMSO) | Molar absorption coefficient ɛ at 630 nm ([2]; Ethanol) | Molar absorption coefficient ɛ at 630 nm ([2]; Methanol) | ^1O2 production [3] | ROS production upon white light irradiation (in words) (HaCaT cells [4]) | Dark cytotoxicity to HaCaT cells (in words) (HaCaT cells [5]; 4 h incubation, 6.25–100 μM applied, dark) | Photoactivation, dark versus white light (in words) (HaCaT cells [5]; 4 h incubation, 6.25–100 μM applied, white light 6.6 J cm^−2) | IC50 at 48 h ([6]; monolayer confluence) [µM] | IC50 at 48 h ([6]; proliferation) [µM] | IC50 at 48 h [7] [µM] | Reduction of cell survival upon light irradiation (HaCaT cells [5]; applied concentration 6.25 and 12.5 μΜ) | Cell survival (HaCaT cells [5]; either in the presence or absence of light, highest concentration tested) [%] | ^1O2 production yield, times higher (positive control) ([3]; 10 μM, same amount of light irradiation)
CN(C)c1ccc(/C=C/c2ccc3c(O)cc(O)cc3[o+]2)cc1 [5,7OHst4′NMe2, 5,7-dihydroxy-2-(4′-dimethylaminostyryl)-benzopyrylium] | undetectable | 15,224 M^−1 cm^−1 | 16,422 M^−1 cm^−1 | 15,224 M^−1 cm^−1 | non-significant enhancement | did not modulate the production of ROS | did not present significant effects | not photoactivated |  |  |  |  |  | 
CN(C)c1ccc(-c2ccc3c(O)cccc3[o+]2)cc1 [5OH4′NMe2, 5-hydroxy-4′-(dimethylamino)-benzopyrylium] | undetectable |  |  |  | non-significant enhancement | significantly increased |  |  | 47.3 ± 0.3 | 14.9 ± 0.1 | 47.25 ± 0.21 | less than 20% | 40 | 
CN(C)c1ccc2nc3ccc(=[N+](C)C)cc-3sc2c1 [methylene blue, Methylene Blue, reference compound] |  |  |  |  |  |  |  |  |  |  |  |  |  | about 5 fold
